Each structure is given as a SMILES string. “Also recorded” adds a separate entry of the source.

For test [1], the system named is MiaPaCa2 (pancreatic) cells. Briefly: SRB growth inhibition assay, MiaPaCa2. The format is cell-based, human. Summed up:
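Growth inhibition of MiaPaCa2 cells was measured by SRB staining after 96 h exposure to 2-fold serial dilutions of compound dissolved in DMSO. IC50 was derived from mean absorbance at 540 nm expressed as a percentage of untreated control wells.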

Test [2] concerns 83 human genes involved in DNA damage signaling responses in Mia-PaCa2 cells. Briefly: qPCR array, DNA damage signaling response genes. The class given is cell-based. The protocol:
Following compound exposure, cells were washed twice in PBS, harvested by trypsinisation, collected by centrifugation (300 g, 5 min, 4° C.) and re-suspended in RLT buffer (Qiagen). Samples were homogenised using QIAshredder spin columns and stored at −80° C. prior to RNA extraction. Three biological replicates were performed on separate days.
The expression of (i) 83 key human genes involved in telomere replication and maintenance, and (ii) 83 human genes involved in DNA damage signaling responses, was assessed using PCR arrays (SABiosciences). Total RNA was extracted from approximately 1×10^7 Mia-PaCa2 cells treated for 24 h with compound 3d, using the RNeasy kit (Qiagen) with on-column DNaseI treatment to remove residual genomic DNA. The quality of the harvested RNA was confirmed by nanodrop spectroscopy and by analysis with a Human RT^2 RNA QC PCR Array. First-strand cDNA synthesis was performed with the RT^2 first strand kit and qPCR was carried out using the RT^2 qPCR master mix (Qiagen) using 0.5 μg total RNA per array plate in a Stratagene MX-3000P instrument (Agilent, USA). Relative gene expression was determined by the ΔΔCT method using the web-based RT^2 Profiler™ PCR Array Data Analysis software (SABiosciences). Data were normalized to the geometric mean of five housekeeping genes (RPLP10, β-actin, B2M, GAPDH and HPRT1).
Various quadruplex-stabilising agents are known to induce pronounced DNA damage responses. We therefore next assessed the effect of 3d on the transcription of genes associated with DNA damage response and repair pathways. For these pathways the effect of a cytotoxic dosage of 3d (160 nM) on Mia-PaCa2 cells was also tested to assess the correlation between compound-induced DNA damage and cell killing. […] The latter two groups appeared to reflect a dynamic switch in the cellular response from low-level growth inhibition up to 40 nM of 3d to cytostatic then cytotoxic effects at 80 nM and 160 nM respectively.
Instead the response was dominated by genes with roles in growth arrest and more general stress responses.

For test [3], the system named is Mia-PaCa2 cells. Briefly: Senescence β-galactosidase staining. The format is cell-based, human. The following applies: 7 days treatment. Here is the method:
FIG. 4. Micrographs showing the results of staining for evidence of cellular senescence in MiaPaCa2 cells using the β-galactosidase assay. Senescent cells are coloured blue in this procedure. Staining was performed after seven days treatments with (a) vehicle control, ×100 magnification, (b) 3.3 nM of compound 3d, ×200 magnification, (c) 6.6 nM of compound 3d, ×200 magnification, (d) 50 nM of compound 4, ×200 magnification, (e) plot of the percentage of senescent cells at the indicated concentrations of compounds 3d and 4, compared to the background senescence in this cell line (with vehicle control only). Cell counts were performed in triplicate and error bars represent estimated standard deviations.
Senescence detection and quantification experiments were carried out using the Senescence β-galactosidase staining kit (Cell Signalling Technology, MA, USA) according to the manufacturer's protocol. Briefly, 1×10^5 cells were seeded in 6-well plates in 2 ml of medium supplemented with the test compound and incubated for 24 h. Cells were washed (2 ml PBS), fixed (2% formaldehyde and 2% glutaraldehyde in PBS, 15 min, room temperature) and washed (2×2 ml PBS) before staining overnight. Senescent cells, detected by their blue pigmentation, were counted using a light microscope.
CDKN1A encodes the cyclin-dependent kinase p21WAF1 that induces replicative senescence, which is a well-studied consequence of telomerase inhibition and telomere maintenance disruption. […] Compounds 3b and 3d behaved in a similar manner to each other, with concentrations of 3-4 nM being sufficient to result in ˜50-60% of cells becoming senescent after this time-course.

Take `CN1CCN(CCCNc2cc3c4c(c(NCCCN5CCN(C)CC5)cc5c4c2C(=O)N(CCCN2CCOCC2)C5=O)C(=O)N(CCCN2CCOCC2)C3=O)CC1` [Compound 3d, 4,9-bis((3-(4-methylpiperazin-1-yl)propyl)amino)-2,7-bis(3-morpholinopropyl)benzo[lmn][3,8]phenanthroline-1,3,6,8(2H,7H)-tetraone]: in test [1], the “selectivity for Mia-PaCa2 compared to the normal fibroblast line WI-38” value is listed as around 20 fold. Besides, the 50% inhibitory concentration (IC50) in test [1] (Homo sapiens, MIA PaCa-2, SRB assay, 96 h exposure, read-out: IC50 Mia-PaCa2) lay within 10 to 20 nM. Further, the “growth response of MiaPaCa2 cells” value was “no growth recovery” in test [1] (exposure to 80 nM); “no viable cells could be recovered by 72 h” in test [1] (exposure to 160 nM); “titratable growth inhibition with subsequent full recovery of confluent growth at 144 h” in test [1] (exposure to between 5 nM and 40 nM). Also, the “expression of DNA damage checkpoint genes ATM and ATR” value in test [2] (24 h) is given as “no significant induction or repression”. Moreover, the “induction of γ-H2AX” value in test [2] (Mia-PaCa2 cells, data not shown) was “no apparent induction; also recorded: do not appear to induce these particular changes”. For the same compound, the “expression of CDKN1A, DDIT3 and GADD45G” value in test [2] (cytotoxic concentrations) is recorded as “strongly up-regulated”; in test [2] (lower concentrations) it was “strongly down-regulated”. Also, in test [2] (dose-dependent), the “expression of the PARP gene” value is given as “down-regulated”. For the same compound, the “number of DNA damage response genes significantly increased or decreased greater than 2-fold” value in test [2] (of 83 genes, 20, 40, 80 or 160 nM, 24 h) stood at 16 genes. For the same compound, the “induction of senescence (in words)” value in test [3] is “strong induction of senescence”. Besides, in test [3], the “potency as inducer of cellular senescence relative to compound 4” value is around 10 fold.

These data come from patent publication US9493460B2, “Diimide compounds” (UCL BUSINESS PLC, priority 2013, dated 2016).
